Reference: patent US10774046B2, “Inhibitors for the treatment of cancer and related methods” (UNIVERSITY OF LOUISVILLE RESEARCH FOUNDATION, INC., priority 2017, dated 2020)

Columns and labels:
H460 cells [1] = assay: cell cycle analysis by flow cytometry; format: cell-based, human
Experimental: (§1) To measure apoptosis, cells were stained with annexin V and propidium iodide and examined as previously described. For example, H460 cells were exposed to increasing concentrations of the PFKFB4 inhibitor (MPN-2), the PFKFB3 inhibitor PFK15 (Tocris) or both and viable cells were counted at 24, 48 and 72 hours. DMSO used as vehicle. For cell cycle experiments, cells were detached, washed with cold PBS and fixed in 70% ethanol (4° C., 30 minutes). The cells then were pelleted by centrifugation, resuspended in PBS containing PI and RNase A, incubated at 37° C. in the dark for 30 minutes and analyzed by flow cytometry (BD FACSCalibur). Data were analyzed using FlowJo software (TREE STAR Inc.). Results were calculated as the mean±SD of three experiments. The effects (Fa values) of the series of concentrations of MPN-2 and PFK-15 were examined individually and in combination at a constant ratio of 1:1.

[2] = system: panel of 97 protein kinases; assay: KINOMEscan active-site dependent competition binding assay; details: 10 μM; data not shown
Experimental: The fructose-6-phosphate kinase activity of human recombinant PFKFB4 in the presence of DMSO±indicated 5MPN concentrations was assayed as previously described. The activity of 5MPN against 97 kinases was examined using a commercially available active-site dependent competition binding assay core service (KINOMEscanEDGE) that quantifies the capacity of test agents to compete with an immobilized, active-site directed ligand using a DNA-tagged kinase and immobilized ligand and compound. For example, enzyme inhibition was studied using an ADP-Glo assay. The effect of MPN-2 on the activity of recombinant human PFKFB4 enzyme was examined in an ADP-Glo assay (Promega), which measures ADP formed from a kinase reaction. ADP is converted into ATP, which is converted into light by a luciferase. PFKFB4 protein was exposed to MPN-2 at indicated concentrations in the presence of ATP and fructose-6-phosphate and following manufacturer's instructions, ADP-Glo and kinase detections reagents were added. The data are shown as the decrease in luminescence caused by MPN-2 relative to DMSO.

[3] = system: H460 human lung adenocarcinoma xenografts; assay: H460 xenograft growth in athymic mice; format: in vivo, BALB/c athymic mice
H460 cells [4] = assay: proliferation, viable cell count by trypan blue exclusion; format: cell-based, human
Experimental: (§2) Cells were incubated in 20% trypan blue (Sigma) for 5 minutes. Cells excluding trypan blue were counted using a standard hemocytometer (Hausser Scientific) to determine total numbers of viable cells. Data are expressed as mean±SD of three experiments.
H460 non-small cell lung cancer cells were plated in 24 well plates and exposed to increasing concentrations of the indicated inhibitors of Formula IV (FBR1-02 corresponds to
DMSO was used as vehicle. After 24, 48 and 72 hours of exposure, cells were detached and viable cells were counted by Trypan blue exclusion (representative counts at 48 hours shown).
Method: H460 cells were plated in 24 well plates and exposed to increasing concentrations of FB4-31 to FB4-36 and 5MPN. DMSO was used as a vehicle. After 24, 48 and 72 hours of exposure, cells were detached, and viable cells were counted by Trypan blue exclusion (representative counts at 72 hours shown).

H460 cells [5] = assay: apoptosis by flow cytometry (annexin V / propidium iodide); format: cell-based, human; details: H460, 10 μM 5MPN
Experimental: as §1

[6] = system: normal human bronchial epithelial (NHBE) cells; assay: cell growth of normal cells, live cell count; format: cell-based; details: live cells at 48 hours
Description: H460, H1299, H441, H522 and A549 non-small cell lung cancer (NSCLC), MDA-MB-231 (breast), LNCaP (prostatic) and HCT116 (colon) adenocarcinoma and Lewis lung carcinoma (LLC) cell lines were obtained from ATCC and used within 6 months of acquisition. PFKFB4^−/− ear pinna fibroblasts isolated from TamCre/loxP/PFKFB4^−/− mice were immortalized as described previously (Chesney J et al. Fructose-2,6-bisphosphate synthesis by 6-phosphofructo-2-kinase/fructose-2,6-bisphosphatase 4 (PFKFB4) is required for the glycolytic response to hypoxia and tumor growth. Oncotarget 2014 Aug. 30; 5(16):6670-86). Normal bronchial epithelial cells (NHBE) were obtained from Lonza and NHBE cells expressing telomerase, SV40 large T antigen and activated Ras (hT/LT/Ras) were a gift from Dr. B. J. Rollins, Dana Farber Cancer Institute. All cell lines were tested and found negative for mycoplasma (PCR Mycoplasma Detection Kit, ABM). Cell lines were grown in DMEM (A549, LNCaP, MDA-MB-231, LLC and PFKFB4^−/−), RPMI 1640 (H460, H1299, H441, H522) and McCoy's 5A media (HCT116) (all from Invitrogen) containing 10% fetal calf serum (Hyclone). […]
as §2

cancer cells = assay: anchorage independent growth as colonies in soft agar; format: cell-based; details: increasing concentrations
Experimental: Method: Cancer cells were plated in soft agar and the effects of increasing concentrations of Formula (VIII) on anchorage independent growth was examined. Briefly, a feeder layer of 0.6% agarose (Agar Noble, Becton Dickinson) in RPMI with 10% fetal bovine serum was plated in 6 cm plates containing vehicle (DMSO) or increasing concentrations of Formula (VIII). 1×10^4 cells were re-suspended in 0.3% agarose in RPMI/10% serum containing DMSO or increasing concentrations of Formula (VIII) and plated on top of the feeder layer. Cells were allowed to grow at 37° C. in 5% CO2 and agarose-containing media with DMSO+/−Formula (VIII) was replenished every 5 days until colonies became visible. Colonies were stained with MTT [3-(4,5-dimethylthiazol-2-yl)-2,5-diphenyl tetrazolium bromide] and counted in four random 1 cm^2 areas per plate under 40× magnification and enumerated.

[7] = H460 transfected with PFKFB4, 10 μM 5MPN, 24 hours

With COc1cccc2c(NCCCCCO[N+](=O)[O-])ccnc12 [5MPN, 5-[(8-methoxyquinolin-4-yl)amino]pentyl nitrate] the cell cycle distribution (H460 cells [1]; H460, 10 μM 5MPN) was “G1 arrest”, the “effect of overexpression of PFKFB4 on G1 arrest” value (H460 cells [1]; [7]) was “reversed” and the “inhibition of a panel of 97 protein kinases” value [2] was “not inhibited”. For the same molecule, the tumor growth ([3]; 5MPN 120 mg/kg oral daily) was “suppressed the growth”, the body weight ([3]; H460-bearing athymic mice, 120 mg/kg oral daily) was “without affecting body weight” and the cell proliferation (H460 cells [4]; H460, 24-72 hours) was “reduction in cell proliferation”. For the same molecule, the growth (H460 cells [4]; H460, over 48 hours) was “dose-dependent reduction in growth”, the “effect of overexpression of PFKFB4 on anti-proliferative effect” value (H460 cells [4]; [7]) was “protected” and the apoptotic cells (H460 cells [5]) was “increase in apoptotic cells”. For the same molecule, the “cell growth of normal cells” value [6] was “virtually unaffected”.

COc1cccc2c(NCCCCCNC(=O)C(F)(F)F)ccnc12 [Formula (VIII), 2,2,2-trifluoro-N-(5-((8-methoxyquinolin-4-yl)amino)pentyl)acetamide] was tested, and the “anchorage independent growth (soft agar colonies)” value (cancer cells) was “inhibited the growth of cancer cells as soft agar colonies”.
